Assay results: the NIST ThermoML archive (doi:10.1021/je020163y)
Numbers after ± are expanded uncertainties.

Details: Crystal; visual observation

First: Cc1cc(O)c2c(=O)c3ccccc3sc2c1O [1,4-dihydroxy-3-methylthioxanthone]
Second: Cc1cc(O)c2c(=O)c3ccccc3sc2c1 [1-hydroxy3-methylthioxanthone]
The Normal melting temperature of the first is higher: 240 ± 4 °C for the first, 149 ± 1 °C for the second.

Going from `O=c1c2ccccc2sc2ccccc12` [thioxanthone] to `O=c1c2ccccc2sc2cccc(O)c12` [1-hydroxythioxanthone], the Normal melting temperature falls from 209 ± 2 °C to 119 ± 1 °C.
